Assay results reported in PMC4710608 (Environmental Health Perspectives, 2015).

Experiments:
[1] = molecular target: T1, PPARγ (Homo sapiens, UniProt P37231); test: competitive TR-FRET binding assay (terbium donor, Fluormone Green tracer displacement)
T1 construct: gene PPARG
T1 sequence (P37231 231-505 limits assumed): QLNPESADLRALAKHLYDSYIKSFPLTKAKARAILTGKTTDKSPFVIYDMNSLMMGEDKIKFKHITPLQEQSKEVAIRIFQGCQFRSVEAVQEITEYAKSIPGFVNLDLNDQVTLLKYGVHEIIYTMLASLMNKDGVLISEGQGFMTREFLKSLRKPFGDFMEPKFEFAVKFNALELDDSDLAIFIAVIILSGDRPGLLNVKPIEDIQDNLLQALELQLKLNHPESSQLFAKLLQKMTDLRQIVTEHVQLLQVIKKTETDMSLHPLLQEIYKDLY

[2] = molecular target: T2, PPARγ (Mus musculus, UniProt P37238); test: GAL4-UAS luciferase transactivation assay in HEK293T/[…] cells; format: cell-based
T2 construct: gene Pparg
T2 sequence (P37238 193-505): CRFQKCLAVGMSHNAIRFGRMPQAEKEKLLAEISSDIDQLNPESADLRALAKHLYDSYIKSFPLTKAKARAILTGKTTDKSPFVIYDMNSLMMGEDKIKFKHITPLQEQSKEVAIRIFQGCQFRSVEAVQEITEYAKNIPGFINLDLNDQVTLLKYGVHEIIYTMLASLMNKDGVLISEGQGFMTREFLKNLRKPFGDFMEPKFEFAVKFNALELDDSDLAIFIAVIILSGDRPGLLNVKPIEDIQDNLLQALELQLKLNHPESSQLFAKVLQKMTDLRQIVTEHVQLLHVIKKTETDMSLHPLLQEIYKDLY

Kd [1]: 1380 nM
Structure (SMILES): CCCCC(CC)COC(=O)CC(C(=O)OCC(CC)CCCC)S(=O)(=O)O (centres unmarked) [DOSS]
GAL4-UAS luciferase transactivation assay in HEK293T/17 cells [2]: DOSS alone elicited dose-dependent increases in PPARγ-driven luciferase expression in the low ppm range
